Laboratory results: patent US12134788B2, “Engineered prephenate dehydrogenases and arogenate dehydrogenases and methods of using the same” (Wisconsin Alumni Research Foundation, priority 2017, dated 2024)

Key:
[1] = molecular target: T1, Medicago truncatula MtPDH variant C220D, SEQ ID NO: 1 (Medicago truncatula, UniProt A0A0A0R205, C220D); assay: ADH and PDH assay: steady-state kinetics and Tyr inhibition, MtPDH C220D; type: biochemical
T1 sequence (A0A0A0R205 1-268 C220D): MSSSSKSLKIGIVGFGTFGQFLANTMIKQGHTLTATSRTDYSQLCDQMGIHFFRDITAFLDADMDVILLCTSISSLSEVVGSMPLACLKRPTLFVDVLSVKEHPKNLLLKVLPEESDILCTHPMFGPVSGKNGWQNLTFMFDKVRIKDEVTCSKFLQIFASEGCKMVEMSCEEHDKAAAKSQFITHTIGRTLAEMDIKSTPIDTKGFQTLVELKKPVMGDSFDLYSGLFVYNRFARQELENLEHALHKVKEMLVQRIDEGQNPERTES
Protocol: (§1) Kinetic parameters of purified recombinant proteins were determined from assays conducted at varying arogenate (19.5 μM-5 mM) and prephenate concentration (23.4 μM-6 mM). Standard assay conditions were 25 mM HEPES pH 7.6, 50 mM KCl and 10% (v/v) ethylene glycol, and 0.5 mM NADP^+ with varied substrate, concentrations. Reactions were initiated by addition of enzyme and incubated at 37° C. monitored every 10-15 seconds at […] using a microplate reader (Tecan Genios). Kinetic parameters were determined by fitting initial velocity data to the Michaelis-Menten equation using the Origin software (OriginLab).
(§2) Arogenate was prepared by enzymatic conversion of prephenate (Sigma-Aldrich) as previously reported^56. For Tyr inhibition assays, Tyr was dissolved in a slightly basic solution (0.025 N NaOH) due to solubility issues, thus the concentration of lysis buffer was increased to 500 mM HEPES final concentration to buffer against the changes by addition of Tyr in the reaction. Reactions containing varying amounts of Tyr (10 μM-8 mM) with 0.5 mM NADP^+ and either 1 mM arogenate or 0.8 mM prephenate were monitored as above.

[2] = molecular target: T2, Glycine max GmPDH1 variant N222D, SEQ ID NO: 2 (Glycine max, UniProt I1MYY4, N222D); assay: ADH and PDH assay: steady-state kinetics and Tyr inhibition, GmPDH1 N222D; type: biochemical, Glycine max (soybean); conditions: IC50^Tyr, 0.5 mM NADP^+
T2 sequence (I1MYY4 1-271 N222D): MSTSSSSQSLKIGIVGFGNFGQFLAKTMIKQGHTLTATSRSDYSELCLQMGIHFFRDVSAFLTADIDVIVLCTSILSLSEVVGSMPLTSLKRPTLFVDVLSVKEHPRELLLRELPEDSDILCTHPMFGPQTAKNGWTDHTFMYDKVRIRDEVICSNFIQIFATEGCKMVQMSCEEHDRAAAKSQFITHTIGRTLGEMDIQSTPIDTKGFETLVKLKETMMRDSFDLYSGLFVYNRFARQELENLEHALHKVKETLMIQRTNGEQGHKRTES
Protocol: as §1, §2

[3] = molecular target: Glycine max GmPDH1 variant M219T (Glycine max, UniProt I1MYY4, M219T); assay: ADH and PDH assay: steady-state kinetics and Tyr inhibition, GmPDH1 M219T; type: biochemical, Glycine max (soybean); conditions: 0-8 mM L-Tyr
Protocol: as §1, §2

[4] = molecular target: T3, Solanum lycopersicum SolyncADH variant D224N (Solanum lycopersicum, UniProt K4C5K7, D224N); assay: ADH and PDH assay: steady-state kinetics and Tyr inhibition, SolyncADH D224N; type: biochemical, Solanum lycopersicum (tomato); conditions: versus wild-type; ADH activity, 0-8 mM Tyr
T3 construct: D224N by site-directed mutagenesis
Protocol: as §1, §2

[5] = molecular target: T4, Medicago truncatula MtncADH variant D220C, SEQ ID NO: 10 (Medicago truncatula, UniProt A0A217FAR3, D220C); assay: ADH and PDH assay: steady-state kinetics and Tyr inhibition, MtncADH D220C; type: biochemical
T4 construct: D220C by site-directed mutagenesis
T4 sequence (A0A217FAR3 1-266 D220C): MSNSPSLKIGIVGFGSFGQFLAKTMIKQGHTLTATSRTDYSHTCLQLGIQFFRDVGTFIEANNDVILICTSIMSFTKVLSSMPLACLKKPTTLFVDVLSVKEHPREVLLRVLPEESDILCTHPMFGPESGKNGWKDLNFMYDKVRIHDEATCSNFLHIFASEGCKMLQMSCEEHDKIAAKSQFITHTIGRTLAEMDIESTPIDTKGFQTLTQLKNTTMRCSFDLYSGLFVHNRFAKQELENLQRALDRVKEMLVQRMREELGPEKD
Protocol: as §1, §2

T3 sequence (K4C5K7 1-272 D224N): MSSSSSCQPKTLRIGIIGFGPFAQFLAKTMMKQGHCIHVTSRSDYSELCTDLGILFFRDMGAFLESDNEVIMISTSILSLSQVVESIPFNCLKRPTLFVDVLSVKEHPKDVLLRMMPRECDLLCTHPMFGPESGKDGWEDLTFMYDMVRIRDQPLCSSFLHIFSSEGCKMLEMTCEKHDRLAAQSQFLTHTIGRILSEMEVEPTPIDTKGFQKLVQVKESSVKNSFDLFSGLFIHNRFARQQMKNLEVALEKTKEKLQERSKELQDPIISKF
Sequence of Glycine max GmPDH1 variant M219T (I1MYY4 1-271 M219T): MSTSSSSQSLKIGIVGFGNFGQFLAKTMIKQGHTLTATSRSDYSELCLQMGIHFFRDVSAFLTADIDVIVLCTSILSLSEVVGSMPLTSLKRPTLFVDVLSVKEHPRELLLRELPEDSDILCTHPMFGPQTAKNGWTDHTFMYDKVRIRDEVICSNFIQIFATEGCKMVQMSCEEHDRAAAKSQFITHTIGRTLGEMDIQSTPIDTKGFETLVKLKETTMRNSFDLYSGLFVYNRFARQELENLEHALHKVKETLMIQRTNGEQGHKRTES

`N[C@@H](Cc1ccc(O)cc1)C(=O)O` [Tyr, L-Tyrosine] was tested. Which IC50 [1] did it give?
The IC50 was 8.2 ± 0.9 mM.

And the IC50 ([2]; substrate arogenate (1 mM))?
Its IC50 is 4.7 ± 0.4 mM.

What about the IC50 ([2]; substrate prephenate (0.8 mM)) of the same compound?
The IC50 was 5.3 ± 0.4 mM.

And the “inhibition by Tyr” value [3]?
The value was “not inhibited by Tyr”.

And the “sensitivity to Tyr inhibition” value [4]?
Its value is “significantly less sensitive to Tyr inhibition”.

What about the IC50 [5] of the same compound?
Its IC50 is 7.7 ± 1.5 mM.

What about the “sensitivity to Tyr inhibition” value ([5]; versus wild-type, ADH activity, 0-8 mM Tyr) of the same compound?
The value was “significantly less sensitive to Tyr inhibition”.
